# Test results as given in US11866483B2, “Fibrosis-inhibiting composition, cells producing same, and cell sheet comprising said cells” (KanonCure, Inc., priority 2018, dated 2024).
# How the values were obtained:
# MMP-1 = assay: Western blotting of culture supernatant of UE7T-13 cells, MMP-1; type: cell-based; details: 15 μM IC-2, UE7T-13 cells, culture supernatant Day 9, vs 0.1% DMSO
# Experimental: (§1) The number of the culture dishes prepared was 6.
# (§2) The culture medium was exchanged in the same manner as Day 0. […] That is, the cells of chemical-untreated group, of which culture medium was collected for MSC, were seeded on 3 culture dishes with a diameter of 10 cm.
# (§3) (2) A 12 ml aliquot of the supernatant was transferred to an Amicon Ultra-15 Centrifugal Filter Unit and was centrifuged at 5,000 g for 60 to 90 min.
# (§4) (3) The absorbance of the enriched culture supernatant (secretome) was measured using a NanoDrop at 280 nm and the protein level was assayed. The blank culture medium and 2× modified RIPA buffer were added to adjust the protein concentration to 1.0 μg/μl. Then, a sonicator (BioRuptur manufactured by COSMO BIO, Tokyo, Japan) was used to perform the total 1 min and 4 cycles of sonication, each cycle including sonication at 200 W for 15 sec and a pause for 30 sec in ice bath. Then, 5×SDS sample buffer was added to adjust the protein concentration to 0.8 μg/μl. Finally, a block incubator (IKA, Staufen, Germany) was used for heat denaturing at 98° C. for 5 min. […]
# (§5) After completion of the primary antibody reaction, the membranes were washed in a suitable volume of TBS-T for 10 min 3 times. […] After that, 1 ml of ECL Prime liquid (GE Healthcare Life Sciences) was applied to each membrane of which chemiluminescence was detected with a LAS-4000 (Fujifilm Corporation, Tokyo, Japan).
# MMP-2 = assay: Western blotting of culture supernatant of UE7T-13 cells, MMP-2; type: cell-based; details: 15 μM IC-2, UE7T-13 cells, culture supernatant Day 9, vs 0.1% DMSO
# Experimental: as §1, §2, §3, §4, §5
# MMP-13 (active form) = assay: Western blotting of culture supernatant of UE7T-13 cells, MMP-13; type: cell-based; details: 15 μM IC-2, UE7T-13 cells, culture supernatant Day 9, vs 0.1% DMSO
# Experimental: as §1, §2, §3, §4, §5
# MMP-14 = assay: Western blotting of culture supernatant of UE7T-13 cells, MMP-14; type: cell-based; details: 15 μM IC-2, UE7T-13 cells, culture supernatant Day 9, vs 0.1% DMSO
# Experimental: as §1, §2, §3, §4, §5
# thioredoxin (TRX) = details: 15 μM IC-2, UE7T-13 cells, culture supernatant Day 9
# Experimental: Expression and production of MMP family members and TRX in cultured cells or the secreted products of those cells were determined by Western blotting and ELISA.
# Cells: bone marrow-derived mesenchymal stem cell line, UE7T-13 cells.
# UE7T-13 cells were seeded on each culture dish with a diameter of 10 cm such that the cell count in each dish was 9.0×10^3 cells/cm^2. The number of the culture dishes prepared was 6.
# Cells in the remaining 3 culture dishes were treated with DMSO as control. Specifically, DMSO was added by completely exchanging the culture medium with DMEM/10% FBS containing DMSO at the final concentration of 0.1%.
# For the DMSO treatment control, the culture medium was completely exchanged with DMEM/0.05% FBS containing DMSO at the final concentration of 0.1%. For the MSC group, the culture medium was completely exchanged with DMEM/0.05% FBS.
# (1) A 5 ml aliquot of culture medium was collected from the culture dishes and these aliquots were combined in one tube for each group. […]
# The aliquots of culture supernatants collected at Day 9 for ELISA assay were used to determine the production of thioredoxin by ELISA. […] The absorbance at 450 nm was measured using a microplate reader (Tecan Group Ltd). The content of thioredoxin in the culture supernatants was calculated from the absorbance using the calibration curve.
smiles,measurement,setting,value
"O=C1[C@H](c2ccccc2)N2C(=O)CCN(C(=O)NCc3ccccc3)[C@H]2CN1Cc1cccc2ccccc12 [IC-2, (6S, 9aS)-6-phenyl-8-naphthalen-1-ylmethyl-4,7-dioxo-hexahydro-pyrazino[1,2-a] pyrimidine-1-carbocylic acid benzylamide]",MMP-1 increase as compared to DMSO control group (chemiluminescence band intensity),MMP-1,about 4.1 fold
same,MMP-2 increase as compared to DMSO control group (chemiluminescence band intensity),MMP-2,about 1.5 fold
same,MMP-13 (active form) increase as compared to DMSO control group (chemiluminescence band intensity),MMP-13 (active form),about 5.1 fold
same,MMP-14 increase as compared to DMSO control group (chemiluminescence band intensity),MMP-14,about 2.1 fold
same,"production of thioredoxin, increase (ELISA)",thioredoxin (TRX),1.5 fold
